EP2951180B1, “2,6,7,8 SUBSTITUTED PURINES AS HDM2 INHIBITORS” (Merck Sharp & Dohme Corp., priority 2013, dated 2014)

These molecules were tested against T1, HDM2 (Homo sapiens, UniProt Q00987) (assay: FRET assay (HDM2 inhibition; method not described in this part)). Conditions: Table 1.
T1 construct: Thioredoxin (N); made in house; host or cells: E. coli strain BL21(DE3)Rosetta
T1 sequence (Q00987 17-125): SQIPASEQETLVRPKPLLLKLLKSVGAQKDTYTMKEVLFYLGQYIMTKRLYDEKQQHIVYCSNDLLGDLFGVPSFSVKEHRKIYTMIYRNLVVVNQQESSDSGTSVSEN
Assay type: binding
Work on `C[C@@H](Nc1nc(C(=O)O)nc2nc(-c3ncccc3-c3ccccc3)n(Cc3ccc(C(F)(F)F)cc3)c12)C1CCC1` [Example 1.75, 6-{[(1R)-1-cyclobutylethyl]amino}-8-(3-phenylpyridin-2-yl)-7-[4-(trifluoromethyl)benzyl]-7H-purine-2-carboxylic acid] yielded an IC50 of 6.12 nM. With `C[C@@H](Nc1nc(C(=O)O)nc2nc(-c3cc(C(C)(C)C)ccn3)n(Cc3ccc(C(F)(F)F)c(F)c3)c12)C1CCC1` [Example 1.76, 8-(4-tert-butylpyridin-2-yl)-6-{[(1R)-1-cyclobutylethyl]amino}-7-[3-fluoro-4-(trifluoromethyl)benzyl]-7H-purine-2-carboxylic acid] the IC50 was 8.49 nM. With `C[C@@H](Nc1nc(C(=O)O)nc2nc(-c3cc(C4CC4)ccn3)n(Cc3ccc(C(F)(F)F)c(F)c3)c12)C1CCC1` [Example 1.77, 6-{[(1R)-1-cyclobutylethyl]amino}-8-(4-cyclopropylpyridin-2-yl)-7-[3-fluoro-4-(trifluoromethyl)benzyl]-7H-purine-2-carboxylic acid] the IC50 was 20 nM. In the case of `C[C@@H](Nc1nc(C(=O)O)nc2nc(-c3cc(C4CCC4)ccn3)n(Cc3ccc(C(F)(F)F)c(F)c3)c12)C1CCC1` [Example 1.78, 6-{[(1R)-1-cyclobutylethyl]amino}-8-(4-cyclobutylpyridin-2-yl)-7-[3-fluoro-4-(trifluoromethyl)benzyl]-7H-purine-2-carboxylic acid], the IC50 is reported as 9.25 nM. In the case of `CCc1ccnc(-c2nc3nc(C(=O)O)nc(N[C@H](C)C4CCC4)c3n2Cc2ccc(C(F)(F)F)c(F)c2)c1` [Example 1.79, 6-{[(1R)-1-cyclobutylethyl]amino}-8-(4-ethylpyridin-2-yl)-7-[3-fluoro-4-(trifluoromethyl)benzyl]-7H-purine-2-carboxylic acid], the IC50 is reported as 10.2 nM. `CCCc1ccnc(-c2nc3nc(C(=O)O)nc(N[C@H](C)C4CCC4)c3n2Cc2ccc(C(F)(F)F)c(F)c2)c1` [Example 1.80, 6-{[(1R)-1-cyclobutylethyl]amino}-7-[3-fluoro-4-(trifluoromethyl)benzyl]-8-(4-propylpyridin-2-yl)-7H-purine-2-carboxylic acid] showed an IC50 of 7.45 nM. `CC(C)c1cncc(-c2nc3nc(C(=O)O)nc(N[C@H](C)C4CCC4)c3n2Cc2ccc(C(F)(F)F)cc2)c1` [Example 1.81, 6-{[(1R)-1-cyclobutylethyl]amino}-8-[5-(1-methylethyl)pyridin-3-yl]-7-[4-(trifluoromethyl)benzyl]-7H-purine-2-carboxylic acid] showed an IC50 of 74.4 nM. Work on `Cc1ccnc(-c2nc3nc(C(=O)O)nc(N[C@H](C)C4CCC4)c3n2Cc2ccc(C(F)(F)F)cc2)c1F` [Example 1.82, 6-{[(1R)-1-cyclobutylethyl]amino}-8-(3-fluoro-4-methylpyridin-2-yl)-7-[4-(trifluoromethyl)benzyl]-7H-purine-2-carboxylic acid] yielded an IC50 of 49 nM. In the case of `CC(C)c1ccc(OC(F)(F)F)c(-c2nc3nc(C(=O)O)nc(N[C@H](C)C4CCC4)c3n2Cc2ccc(OC(F)(F)F)c(F)c2)c1` [Example 1.83, 6-{[(1R)-1-cyclobutylethyl]amino}-7-[3-fluoro-4-(trifluoromethoxy)benzyl]-8-[5-(1-methylethyl)-2-(trifluoromethoxy)phenyl]-7H-purine-2-carboxylic acid], the IC50 is reported as 23.2 nM. For `Cc1ccc(OC(F)(F)F)c(-c2nc3nc(C(=O)O)nc(N[C@H](C)C4CCC4)c3n2Cc2ccc(C(F)(F)F)cc2)c1` [Example 1.84, 6-{[(1R)-1-cyclobutylethyl]amino}-8-[5-methyl-2-(trifluoromethoxy)phenyl]-7-[4-(trifluoromethyl)benzyl]-7H-purine-2-carboxylic acid], the IC50 was 9.68 nM. For `CC(C)Cc1ccnc(-c2nc3nc(C(=O)O)nc(N[C@H](C)C4CCC4)c3n2Cc2ccc(C(F)(F)F)cc2)c1` [Example 1.85, 6-{[(1R)-1-cyclobutylethyl]amino}-8-[4-(2-methylpropyl)pyridin-2-yl]-7-[4-(trifluoromethyl)benzyl]-7H-purine-2-carboxylic acid], the IC50 was 9.69 nM. For `Cc1cnc(-c2nc3nc(C(=O)O)nc(N[C@H](C)C4CCC4)c3n2Cc2ccc(C(F)(F)F)cc2)cc1C(C)C` [Example 1.86, 6-{[(1R)-1-cyclobutylethyl]amino}-8-[5-methyl-4-(1-methylethyl)pyridin-2-yl]-7-[4-(trifluoromethyl)benzyl]-7H-purine-2-carboxylic acid], the IC50 was 24.8 nM. With `Cc1c(C(C)C)ccnc1-c1nc2nc(C(=O)O)nc(N[C@H](C)C3CCC3)c2n1Cc1ccc(C(F)(F)F)cc1` [Example 1.87, 6-{[(1R)-1-cyclobutylethyl]amino}-8-[3-methyl-4-(1-methylethyl)pyridin-2-yl]-7-[4-(trifluoromethyl)benzyl]-7H-purine-2-carboxylic acid] the IC50 was 59 nM. `C[C@@H](Nc1nc(C(=O)O)nc2nc(-c3cc(CCC(C)(C)C)ccn3)n(Cc3ccc(C(F)(F)F)cc3)c12)C1CCC1` [Example 1.88, 6-{[(1R)-1-cyclobutylethyl]amino}-8-[4-(3,3-dimethylbutyl)pyridin-2-yl]-7-[4-(trifluoromethyl)benzyl]-7H-purine-2-carboxylic acid] gave an IC50 of 19.6 nM. `C[C@@H](Nc1nc(C(=O)O)nc2nc(-c3cc(CCC4CC4)ccn3)n(Cc3ccc(C(F)(F)F)cc3)c12)C1CCC1` [Example 1.89, 6-{[(1R)-1-cyclobutylethyl]amino}-8-[4-(2-cyclopropylethyl)pyridin-2-yl]-7-[4-(trifluoromethyl)benzyl]-7H-purine-2-carboxylic acid] gave an IC50 of 8.67 nM. For `Cc1cnc(-c2nc3nc(C(=O)O)nc(N[C@H](C)C4CCC4)c3n2Cc2ccc(OC(F)(F)F)c(F)c2)cc1C(C)C` [Example 1.90, 6-{[(1R)-1-cyclobutylethyl]amino}-7-[3-fluoro-4-(trifluoromethoxy)benzyl]-8-[5-methyl-4-(1-methylethyl)pyridin-2-yl]-7H-purine-2-carboxylic acid], the IC50 was 24.7 nM. With `Cc1c(C(C)C)ccnc1-c1nc2nc(C(=O)O)nc(N[C@H](C)C3CCC3)c2n1Cc1ccc(OC(F)(F)F)c(F)c1` [Example 1.91, 6-{[(1R)-1-cyclobutylethyl]amino}-7-[3-fluoro-4-(trifluoromethoxy)benzyl]-8-[3-methyl-4-(1-methylethyl)pyridin-2-yl]-7H-purine-2-carboxylic acid] the IC50 was 22.3 nM. `Cc1cnc(-c2nc3nc(C(=O)O)nc(N[C@H](C)C4CCC4)c3n2Cc2ccc(C(F)(F)F)c(F)c2)cc1C(C)C` [Example 1.92, 6-{[(1R)-1-cyclobutylethyl]amino}-7-[3-fluoro-4-(trifluoromethyl)benzyl]-8-[5-methyl-4-(1-methylethyl)pyridin-2-yl]-7H-purine-2-carboxylic acid] was tested, and the IC50 was 15.9 nM. For `Cc1cc(C(C)C)cc(-c2nc3nc(C(=O)O)nc(N[C@H](C)C4CCC4)c3n2Cc2ccc(C(F)(F)F)cc2)n1` [Example 1.93, 6-{[(1R)-1-cyclobutylethyl]amino}-8-[6-methyl-4-(1-methylethyl)pyridin-2-yl]-7-[4-(trifluoromethyl)benzyl]-7H-purine-2-carboxylic acid], the IC50 was 19.1 nM. With `Cc1cc(-c2nc3nc(C(=O)O)nc(N[C@H](C)C4CCC4)c3n2Cc2ccc(C(F)(F)F)cc2)n(C)n1` [Example 1.94, 6-{[(1R)-1-cyclobutylethyl]amino}-8-(1,3-dimethyl-1H-pyrazol-5-yl)-7-[4-(trifluoromethyl)benzyl]-7H-purine-2-carboxylic acid] the IC50 was 173 nM.
